Tests used:
Solubility (qualitative) = settings: water, alcohols, acetone
domestic flies [1] = assay: Insecticidal activity on domestic flies, laboratory test (gauze boxes); type: in vivo; settings: 0.1% solution in 5% aqueous glucose solution; 50 flies per box; count in 72 hours
Protocol: (§1) Based on the compound there was prepared an insecticidal composition in the form of a 0.1% solution thereof in a 5% aqueous glucose solution. The activity of the insecticidal composition, according to the invention was tested on domestic flies. To this end, into the gauze-made boxes of 10x10 cm in size (6 boxes) 6-7-day flies of both sexes were placed at the rate of 50 individuals per each box. Into 5 boxes there were placed Petri dishes with a 5% aqueous glycose solutiono An insecticidal activity of the composition, according to the invention, was tested in com- parison with an insecticidal composition based on 0,0-dimethyl(1-hydroxy-2,2,2-trichloroethyl)phosphonate. The tests were also conducted in living and production premises. For this, Petri dishes containing a 0.1% aqueous solution of the insecticide of the invention, to which a 5% glucose solution was added, were put at a rate of 2-3 dishes per 20 m^2. The activity of the composition, according to the invention, was evaluated by a direct count of dead insects in 72 hours or by using the adhesive tapes and counting the number of flies on the tape prior and after the test.

domestic flies [2] = assay: Insecticidal activity on flies, large-scale test in living and production premises; type: in vivo; settings: 0.1% aqueous solution with 5% glucose, 2-3 dishes per 20 m^2, living and production premises; 72 hours
Protocol: as §1

Verticillium albo-atrum [3] = assay: Inhibition of phytopathogenic fungi growth, laboratory test on potato-dextrose agar; type: cell-based; settings: active principle 0.01 % by mass in potato-dextrose agar
Protocol: (§2) A fungicidal composition based on this compound was prepared in the form of a 0.01% solution thereof in distilled water. A fungicidal action of the composition, according to the invention, was tested for inhibition of vegetative fungi growth such as Fusarium moniliforme, Ventura inaequalis, Rhyzoctonia ciolaceae, Botrytis cinereae, Verticillium albo-atrum, Diplodia zeae, Fusarium oxysporum, Rhoma betae, Rhyzoctonia aderholdii, Aspergillus niger, Alternaria sobani, Botrytis allii, Aspergillus fumigatis, Fusarium culmorum, Penicillium cyclopium affecting potato, sugar beet, cotton seeds either in laboratory or field conditions. For testing it to the Petri dishes containing potato-dextrose agar the composition of the invention was.added at the concentration of an active principle of 0.01 % by mass. The Petri dishes containing the same agar culture were inoculated with a mycelium of phytopathogenic fungi. For control dishes the phytopathogenic fungi were inoculated on agar without using the composition of the invention. A fungicidal effect of the composition, according to the invention was tested in comparison with the known fungicidal compositions based on 2,3-dichloro-1,4-naphthoquinone, zinc N,N'-ethylene-bis-dithiocarbamate and tetramethylthiuram disulphide.

Fusarium moniliforme [4] = assay: as above; type: cell-based; settings: active principle 0.01 % by mass in potato-dextrose agar
Protocol: as §2

Botrytis cinereae [5] = assay: as above; type: cell-based; settings: active principle 0.01 % by mass in potato-dextrose agar
Protocol: as §2

Venturia inaequalis [6] = assay: as above; type: cell-based; settings: active principle 0.01 % by mass in potato-dextrose agar
Protocol: as §2

Rhyzoctonia violaceae [7] = assay: as above; type: cell-based; settings: active principle 0.01 % by mass in potato-dextrose agar
Protocol: as §2

Verticillium albo-atrum [8] = assay: Inhibition of phytopathogenic fungi, field test on affected potato plants; type: in vivo; settings: 5 m^2 plots of affected potato plants sprayed
Excerpt: (§3) For field tests the plots of 5 m^2 in size with potato plants affected by Fusarium moniliforme, Venturia inaequalis, Rhyzoctonia violaceae, Botrytis cinereae, Verticillium albo-atrum, Diplodia zeae, Fusarium oxysporum, Rhoma betae, Rhyzoctonia aderholdii, Aspergillus niger, Alternaria sobani, Botrytis allii, Aspergillus fumigatis, Fusarium culmorum, Penicillium cyclopium were sprayed with the fungicide of the invention. To compare, the similar plots of the affected potato plants were aprayed with the known compositions indicated above.

Fusarium moniliforme [9] = assay: as above; type: in vivo; settings: 5 m^2 plots of affected potato plants sprayed
Excerpt: as §3

Botrytis cinereae [10] = assay: as above; type: in vivo; settings: 5 m^2 plots of affected potato plants sprayed
Excerpt: as §3

Venturia inaequalis [11] = assay: as above; type: in vivo; settings: 5 m^2 plots of affected potato plants sprayed
Excerpt: as §3

Rhyzoctonia violaceae [12] = assay: as above; type: in vivo; settings: 5 m^2 plots of affected potato plants sprayed
Excerpt: as §3

Rhyzoctonia aderholdii [13] = assay: Inhibition of phytopathogenic fungi growth, laboratory test on potato-dextrose agar; type: cell-based; settings: active principle 0.01 % by mass in potato-dextrose agar
Protocol: as §2

Aspergillus niger [14] = assay: as above; type: cell-based; settings: active principle 0.01 % by mass in potato-dextrose agar
Protocol: as §2

Aspergillus fumigatis [15] = assay: as above; type: cell-based; settings: active principle 0.01 % by mass in potato-dextrose agar
Protocol: as §2

Penicillium cyclopium [16] = assay: as above; type: cell-based; settings: active principle 0.01 % by mass in potato-dextrose agar
Protocol: as §2

Fusarium culmorum [17] = assay: as above; type: cell-based; settings: active principle 0.01 % by mass in potato-dextrose agar
Protocol: as §2

Rhoma betae [18] = assay: as above; type: cell-based; settings: active principle 0.01 % by mass in potato-dextrose agar
Protocol: as §2

Rhyzoctonia aderholdii [19] = assay: Inhibition of phytopathogenic fungi, field test on affected potato plants; type: in vivo; settings: 5 m^2 plots of affected potato plants sprayed
Excerpt: as §3

Aspergillus niger [20] = assay: as above; type: in vivo; settings: 5 m^2 plots of affected potato plants sprayed
Excerpt: as §3

Aspergillus fumigatis [21] = assay: as above; type: in vivo; settings: 5 m^2 plots of affected potato plants sprayed
Excerpt: as §3

Penicillium cyclopium [22] = assay: as above; type: in vivo; settings: 5 m^2 plots of affected potato plants sprayed
Excerpt: as §3

Fusarium culmorum [23] = assay: as above; type: in vivo; settings: 5 m^2 plots of affected potato plants sprayed
Excerpt: as §3

Rhoma betae [24] = assay: as above; type: in vivo; settings: 5 m^2 plots of affected potato plants sprayed
Excerpt: as §3

SMILES: O=C(NP(=O)(Nc1cccc(Cl)c1)Nc1cccc(Cl)c1)c1ccc(Cl)cc1 [Example 3, di-meta- chloranilide pf para-chlorobenzoylamidophosphoric acid]
- solubility (Solubility (qualitative)): soluble in water, alcohols, acetone
- Death of flies, % tests laboratory (domestic flies [1]): 87%
- Death of flies, % tests large-scale (domestic flies [2]): 86%

SMILES: COP(=O)(NC(=O)c1ccc(Cl)c([N+](=O)[O-])c1)OC [Example 7, dimethyl ether of 3-mitro-4-chlorobenzoylamidiphos-phoric acid]
- solubility (Solubility (qualitative)): soluble in water, alcohols, acetone
- Death of flies, % tests laboratory (domestic flies [1]): 76%
- Death of flies, % tests large-scale (domestic flies [2]): 75%

SMILES: O=C(NP(=O)(Nc1ccccc1Cl)Nc1ccccc1Cl)c1ccc(Br)cc1 [Example 5, para-bromo- bensoylamidophosphoric acid di-ortho-chloranilide]
- Death of flies, % tests laboratory (domestic flies [1]): 100%
- Death of flies, % tests large-scale (domestic flies [2]): 100%

SMILES: O=C(NP(=O)(Nc1ccccc1)Nc1ccccc1)c1ccc(Br)cc1 [Example 4, para-bromobenzoilamidophosphoric acid dianilide]
- solubility (Solubility (qualitative)): soluble in water, alcohols, acetone
- Death of flies, % tests laboratory (domestic flies [1]): 94%
- Death of flies, % tests large-scale (domestic flies [2]): 93%

SMILES: O=C1C(Cl)=C(Cl)C(=O)c2ccccc21 [2,3-dichloro--1,4-naphtho-quinone, 2,3-dichloro-1,4-naphthoquinone, reference compound]
- Inhibition of growth of phytopathogenic fungi colonies, % Verticillium albo--atrum test laboratory (Verticillium albo-atrum [3]): 53%
- Inhibition of growth of phytopathogenic fungi colonies, % Fusatium monili-forme test laboratory (Fusarium moniliforme [4]): 55%
- Inhibition of growth of phytopathogenic fungi colonies, % Botrytis cinereae test laboratory (Botrytis cinereae [5]): 38%
- Inhibition of growth of phytopathogenic fungi colonies, % Venturia inaequalis test laboratory (Venturia inaequalis [6]): 40%
- Inhibition of growth of phytopathogenic fungi colonies, % Rhyzoctonia violaceae test laboratory (Rhyzoctonia violaceae [7]): 34%
- Inhibition of growth of phytopathogenic fungi colonies, % Verticillium albo--atrum test field (Verticillium albo-atrum [8]): 52%
- Inhibition of growth of phytopathogenic fungi colonies, % Fusatium monili-forme test field (Fusarium moniliforme [9]): 54%
- Inhibition of growth of phytopathogenic fungi colonies, % Botrytis cinereae test field (Botrytis cinereae [10]): 37%
- Inhibition of growth of phytopathogenic fungi colonies, % Venturia inaequalis test field (Venturia inaequalis [11]): 39%
- Inhibition of growth of phytopathogenic fungi colonies, % Rhyzoctonia violaceae test field (Rhyzoctonia violaceae [12]): 32%

SMILES: O=C(NP(=O)(Nc1ccc(Cl)cc1Cl)Nc1ccc(Cl)cc1Cl)c1ccc(Br)cc1 [Example 6, para-bromobenzoilamidophosphoric acid di-2,4-dichloranilide]
- solubility (Solubility (qualitative)): soluble in water, alcohols, acetone
- Death of flies, % tests laboratory (domestic flies [1]): 100%
- Death of flies, % tests large-scale (domestic flies [2]): 100%

SMILES: O=C(CCl)NP(=O)(NCc1ccccc1)NCc1ccccc1 [Example 1, chloroacetylamidophosphoric acid dibenzylamide]
- solubility (Solubility (qualitative)): soluble in water, alcohols acetone
- Death of flies, % tests laboratory (domestic flies [1]): 94%
- Death of flies, % tests large-scale (domestic flies [2]): 93%

SMILES: CCOP(=O)(NC(=O)c1ccc(Cl)c([N+](=O)[O-])c1)OCC [Example 8, diethyl ether of 3-nitro-4-chlorobenzoylamidophosphoric acid]
- solubility (Solubility (qualitative)): soluble in water, alcohols, acetone
- Death of flies, % tests laboratory (domestic flies [1]): 98%
- Death of flies, % tests large-scale (domestic flies [2]): 97%

SMILES: CN(C)C(=S)SSC(=S)N(C)C [tetramethylthi-uram disulphide, tetramethylthiuram disulphide, reference compound]
- Inhibition of growth of phytopathogenic fungi colonies, % Rhyzoctonia aderholdii test laboratory (Rhyzoctonia aderholdii [13]): 100%
- Inhibition of growth of phytopathogenic fungi colonies, % Aspergillus niger test laboratory (Aspergillus niger [14]): 100%
- Inhibition of growth of phytopathogenic fungi colonies, % Aspergillus fumigatis Tests laboratory (Aspergillus fumigatis [15]): 81%
- Inhibition of growth of phytopathogenic fungi colonies, % Penicillium cyclopium Tests laboratory (Penicillium cyclopium [16]): 65%
- Inhibition of growth of phytopathogenic fungi colonies, % Fusarium culmorum Tests laboratory (Fusarium culmorum [17]): 100%
- Inhibition of growth of phytopathogenic fungi colonies, % Rhoma betae test laboratory (Rhoma betae [18]): 60%
- Inhibition of growth of phytopathogenic fungi colonies, % Rhyzoctonia aderholdii test field (Rhyzoctonia aderholdii [19]): 99%
- Inhibition of growth of phytopathogenic fungi colonies, % Aspergillus niger test field (Aspergillus niger [20]): 98%
- Inhibition of growth of phytopathogenic fungi colonies, % Aspergillus fumigatis Tests field (Aspergillus fumigatis [21]): 80%
- Inhibition of growth of phytopathogenic fungi colonies, % Penicillium cyclopium Tests field (Penicillium cyclopium [22]): 64%
- Inhibition of growth of phytopathogenic fungi colonies, % Fusarium culmorum Tests field (Fusarium culmorum [23]): 98%
- Inhibition of growth of phytopathogenic fungi colonies, % Rhoma betae test field (Rhoma betae [24]): 59%

SMILES: Cc1ccc(C)c(NP(=O)(NC(=O)c2ccc(Cl)cc2)Nc2cc(C)ccc2C)c1 [Example 2, di-2,5-dimethylanil-ide of para-chlorobenzoylamidophosphoric acid]
- solubility (Solubility (qualitative)): soluble in water, alcohols, acetone
- Death of flies, % tests laboratory (domestic flies [1]): 92%
- Death of flies, % tests large-scale (domestic flies [2]): 91%

From patent EP0407583A1, “DERIVATIVES OF DICHLOR[…] ACYLAMIDO[…] AND INSECTICIDAL, FU[…] HEMATOCIDAL PREPARATIONS BASED ON THEM” (priority 1989, dated 1990)
